Results on seven compounds are retold here after paper PMC4522657, “Identification of a DYRK1A Inhibitor that Induces Degradation of the Target Kinase using Co-chaperone CDC37 fused with Luciferase nanoKAZ” (Scientific Reports, 2015).

The subject of one test is CDC37-nanoKAZ. The test is described as follows: Luminescence activity of CDC37-nanoKAZ in total cell lysates. The following applies: counter-test, same concentrations as interaction assay. It is filed as cell-based. Here is the method:
(§1) The luminescence activity of the cell lysates was determined using a Centro LB 960 Microplate Luminometer (Berthold Technologies, Bad Wildbad, Germany). A reaction mixture containing bis-coelenterazine (final concentration of 0.1–1 μg/100 μL) in PBS containing 0.02% Tween20 and 20 mM EDTA was injected. The luminescence intensity was recorded at 0.1 s intervals for 10 s or 10 min. The maximum luminescence intensity (Imax), represented in relative luminescence units (rlu), was used in the study.
Targeting the DYRK1A/CDC37 complex
(a-d) Luminescence intensities of total cell lysates of cells treated with the indicated […]
Figure 4. Luminescence intensities at each concentration are shown as fold-changes relative to that at 0 nM. Points are means ± SD (n = 3).
(1 picture or pasted object on this page, not shown here)
Luminescence intensities of total cell lysates of cells treated with the indicated concentrations of CaNDY, as also used in Figure 5c. Luminescence intensities at each concentration are shown as fold-changes to that at 0 nM. Points are means ± SD (n = 3).

In test [1] the target is T1, interaction of CDC37-nanoKAZ with 3xFLAG-DYRK1A (Y319F/Y321F) (Homo sapiens, UniProt Q13627, Y319F/Y321F).
T1 construct: F2A peptide linking to EGFP (2A skipping releases EGFP; a 2A remnant may stay on DYRK1A) (C); expressed in transfected cells; host or cells: 293T cells stably expressing CDC37-nanoKAZ, transiently transfected with pcDNA5/FRT/TO 3xFLAG-DYRK1A (Y319F/Y321F)
In words: CDC37-nanoKAZ binding assay (ELISA of the CDC37-nanoKAZ interaction) in 293T cells. In kind it is cell-based. The note with it: for EC50: 293T cells stably expressing CDC37-nanoKAZ, treated one hour, read-out: EC50, decrease of relative luminescence intensity; for antagonism of the CDC37-nanoKAZ interaction: result in words, Fig. 6c. On the procedure:
The cells were then treated with the indicated concentrations of small molecules for one hour. Cell lysates were added to FLAG antibody-coated 96-well plates and luminescence intensities were measured. The amount of bound 3xFLAG-DYRK1A was measured using a HRP-conjugated antibody against FLAG. The relative Imax for CDC37-nanoKAZ was normalized using the amount of bound protein.
Stable cell lines transfected with expression vectors for 3xFLAG-tagged DYRK family kinases and its mutants were lysed in ice-cold HENG buffer (50 mM HEPES-KOH, pH 7.9, 150 mM NaCl, 20 mM Na2MoO4, 2 mM EDTA, 5% Glycerol, 0.5% TritonX-100) containing protease inhibitor cocktail (Nacalai Tesque) on ice. […] The wells were wash three times with ice-cold HENG buffer and then a luminescence assay was performed.
as §1
After measuring the luminescence intensities, the wells were washed three times with HENG buffer, and incubated with HRP-conjugated anti-FLAG antibody diluted with PBS containing […] and 2% fetal bovine serum at 37 °C for one hour. After extensive washing, […] Super Sensitive One Component HRP Microwell Substrate (SurModics, Eden Prairie, MN, USA) was added into the well and the reaction was stopped with sulfuric acid. Absorbance at 450 nm was measured with ARVO X5 (PerkinElmer). The relative amount of protein bound on the well was estimated from the absorbance.
In Supporting Figure S1a, the values of Imax are shown in kinetics plots. In Figs 2c,e, 3c, S1d, S3, and S4, the relative luminescence intensities are shown as the fold-change in the Imax values of the samples relative to Imax with EGFP. In Figs 4, 5a,c and 6c, the relative luminescence intensities were normalized to the amount of the bound 3xFLAG-DYRK1A mutant and calculated as the fold-change relative to the value at 0 μM of the compounds.
Small molecules in our original synthetic chemical library, including unpublished small molecule inhibitors of DYRK1A and its structural derivatives (data not shown), were added to the 96-well plates containing the transfected cells at a final concentration of 4 μM. The cells were then processed as described above.
On the technique in general: An ELISA detects its analyte on a solid surface through an enzyme-linked reagent.

A further test addresses DYRK1A (Homo sapiens, UniProt Q13627). In words: In vitro kinase assay, substrate DYRKtide-F. In kind it is biochemical. Further details: full-length human recombinant kinases were expressed using a baculovirus expression system as amino-terminal GST-fusion proteins; GST (N); purchased Carna Biosciences; host or cells: baculovirus expression system. The following applies: for inhibitory activity against recombinant DYRK1A: result in words, Fig. 6b. From the text:
Detailed information on the assay conditions is available on the website of Carna Biosciences (http://www.carnabio.com/english/index.html; Kobe, Japan). In brief, full-length human recombinant kinases were expressed using a baculovirus expression system as amino-terminal GST-fusion proteins, and purified by glutathione-Sepharose chromatography. The GenBank accession numbers of DYRK1A, DYRK1B, DYRK2, and DYRK3 were NP_001387.2, NP_004705.1, NP_003574.1, and NP_003573.2. […] For each compound, a DMSO solution was diluted in assay buffer to yield a final concentration of 1% DMSO. After incubation for one hour at room temperature, substrate phosphorylation was analyzed by electrophoretic separation of the substrate and products using a Caliper LC3000 platform (Caliper Life Sciences, Mountain View, CA, USA). The phosphorylated product (P)/(P + substrate) ratio was calculated at each concentration of each small molecule and the percent inhibition was expressed relative to a control assay in the absence of the small molecule. […] The IC50 of each compound was calculated by interpolation on a log-concentration-response curve fitted with a four-parameter logistic equation.

For the next test, the target named is T2, 3xFLAG-DYRK1A (Homo sapiens, UniProt Q13627).
T2 construct: F2A peptide linking to EGFP (2A skipping releases EGFP; a 2A remnant may stay on DYRK1A) (C); expressed in transfected cells; host or cells: 293T cells, transient
The test is described as follows: Western blot of 3xFLAG-DYRK1A level in transfected 293T cells. It is filed as cell-based. Here is the method:
To investigate whether DYRK1A is a client kinase of the CDC37/HSP90 system, we used a HSP90 inhibitor, ganetespib. 293T cells were transiently transfected with an expression vector of 3xFLAG-tagged DYRK1A (3xFLAG-DYRK1A). At 24 h after transfection, the cells were treated with ganetespib for the indicated time (0–8 h). Total cell lysates were collected and subjected to SDS-PAGE followed by Western blot analysis.
Figure 1 Ganetespib, a HSP90 inhibitor, decreases the DYRK1A protein level. 293T cells were transiently transfected with an expression vector for 3xFLAG-DYRK1A. At 24 h after transfection, the cells were treated with ganetespib (100 nM) and collected 0 and 8 h after treatment. Total cell lysates were subjected to SDS-PAGE followed by Western blot analysis using antibodies against FLAG and GAPDH. In the control group (DMSO), expression of 3xFLAG-DYRK1A increased at 8 h compared to 0 h, and ganetespib suppressed this increase of 3xFLAG-DYRK1A.
(§2) Western blot analysis was performed using the antibodies described above. In brief, total cell lysates were separated by SDS-PAGE (5–20% gels; ATTO, Tokyo, Japan) under reducing conditions and then transferred to a PVDF membrane (PALL, SP, Brazil). Antibody reactions were performed with Can Get Signal® Immunoreaction Enhancer Solution (Toyobo). Peroxidase activities on the membrane were visualized with ECL Western Blotting Detection Reagents (GE Healthcare) or ImmunoStar® LD (Wako Pure Chemical Industries, Osaka, Japan), and a ChemiDoc^TM MP Imaging System (Bio-Rad, Hercules, CA, USA).
For orientation: In western blotting, separated proteins are transferred to a membrane and probed.

Another test concerns the target T3, endogenous DYRK1A (Homo sapiens, UniProt Q13627).
T3 construct: endogenous in cells; host or cells: HEK293
In words: Western blot of endogenous DYRK1A protein in HEK293 cells. In kind it is cell-based. The note with it: ganetespib 100 nM, 4 days. On the procedure:
We investigated whether CaNDY destabilizes DYRK1A as ganetespib does. […] Next we examined whether CaNDY decreased endogenous DYRK1A protein. HEK293 cells were cultured for 0–4 days with CaNDY (2 μM) and then subjected to SDS-PAGE followed by Western blot analysis using antibodies against DYRK1A and GAPDH. […] The treated cells were also subjected to reverse transcription followed by quantitative PCR analysis.
as §2

Take `CCN1/C(=C/C(C)=O)Sc2ccc(O)cc21` [INDY]: in the test on CDC37-nanoKAZ, the “inhibition of luminescence activity of CDC37-nanoKAZ” value (“inhibition” below) was “did not inhibit”.
The term EC50 denotes the concentration at which the effect is half-maximal. A word on the IC50: it is the concentration that inhibits the measured activity by half. For `N=C1NC(=O)C(=Cc2ccc3c(c2)OCO3)S1` [PD0439], in test [1], the concentration for a half-maximal effect (EC50) was determined as 573 nM. Also, the IC50 on DYRK1A (25 μM ATP, 1 μM DYRKtide-F, read-out: IC50, substrate phosphorylation) is 16.7 nM.
Regarding `[H]/N=C1/NC(=O)C(=Cc2ccc3[nH]ccc3c2)S1` [PD0442], the “antagonism of the CDC37-nanoKAZ interaction” value in test [1] was “did not antagonize the interaction”. Besides, the “inhibitory activity against recombinant DYRK1A” value on DYRK1A is “weak inhibitory activity”.
The matching figures for `O=C1NC(=S)S/C1=C\c1ccc2[nH]ccc2c1` [RD0440]: “did not antagonize the interaction” and “weak inhibitory activity”.
Turning to `CC[C@H](C)[C@H](NC(=O)[C@H]([C@@H](C)CC)N(C)C(C)=O)C(=O)N[C@H](C(=O)N[C@@H](CC(C)C)C(=O)[C@@]1(C)CO1)[C@@H](C)O` [epoxomicin], the “effect on CaNDY-mediated degradation of 3xFLAG-DYRK1A” value on 3xFLAG-DYRK1A (2 µM epoxomicin pre-treatment 1 h, then CaNDY 2 µM 8 h) is reported as “partially prevented”.
As for `CC(C)c1cc(-c2n[nH]c(=O)n2-c2ccc3c(ccn3C)c2)c(O)cc1O` [ganetespib, reference compound], the EC50 in test [1] came out at 14 nM. For the same compound, the DYRK1A protein level result at 3xFLAG-DYRK1A (ganetespib 100 nM, 8 h, compared with DMSO) is recorded as “decreased the DYRK1A level”. In addition, the “accumulation of endogenous DYRK1A” value at endogenous DYRK1A is recorded as “prevented it”. The “inhibition” value with CDC37-nanoKAZ is on record as “did not inhibit”.
For `COc1ccc2c(c1)[nH]c1c(C)nccc12` [harmine], the “inhibition” value in the test with CDC37-nanoKAZ is “did not inhibit”.
